Data from ChEMBL document CHEMBL4373693, “Virtual Screening Approach and Investigation of Structure-Activity Relationships To Discover Novel Bacterial Topoisomerase Inhibitors Targeting Gram-Positive and Gram-Negative Pathogens” (J Med Chem, 2019).
Values after ≈ are worked out from the molar mass of the structure shown.

Experiments:
[1] = tested on: Enterococcus faecalis; assay: Antibacterial activity against vancomycin and teicoplanin-resistant Enterococcus faecalis APV 00409 after 16 to 24 hrs by broth microdilution method; format: functional
[2] = tested on: Escherichia coli; assay: Antibacterial activity against Escherichia coli ATCC 25922 in presence of 50% human serum after 16 to 24 hrs by broth microdilution method; format: functional
[3] = tested on: Staphylococcus aureus; assay: Antibacterial activity against Staphylococcus aureus BAA-1720 in presence of 50% human serum after 16 to 24 hrs by broth microdilution method; format: functional
[4] = tested on: Staphylococcus aureus; assay: Antibacterial activity against Staphylococcus aureus BAA-1720 after 16 to 24 hrs by broth microdilution method; format: functional
[5] = tested on: Enterococcus faecalis; assay: Antibacterial activity against Enterococcus faecalis ATCC 29212 after 16 to 24 hrs by broth microdilution method; format: functional
[6] = tested on: Enterococcus faecalis; assay: Antibacterial activity against vancomycin-sensitive Enterococcus faecalis APV 00623 after 16 to 24 hrs by broth microdilution method; format: functional
[7] = tested on: Staphylococcus aureus; assay: Selectivity ratio of MIC for Staphylococcus aureus BAA-1720 in presence of 50% human serum to MIC for Staphylococcus aureus BAA-1720; format: functional
[8] = tested on: Haemophilus influenzae; assay: Antibacterial activity against quinolone-sensitive Haemophilus influenzae ATCC 49766 after 16 to 24 hrs by broth microdilution method; format: functional
[9] = target: DNA gyrase subunit A (Staphylococcus aureus, UniProt P20831); assay: Inhibition of Staphylococcus aureus ATCC 29213 DNA gyrase A assessed as reduction in enzyme-mediated supercoiling of relaxed pBR322 DNA by ethidium bromide staining based gel electrophoresis method
[10] = tested on: Staphylococcus aureus; assay: Antibacterial activity against Staphylococcus aureus ATCC 29213 after 16 to 24 hrs by broth microdilution method; format: functional
[11] = Selectivity ratio, ratio of IC50 for human HEK293 cells to MIC for Escherichia coli ATCC 25922; format: toxicity; conditions: read-out: Selectivity Index
[12] = tested on: Enterococcus faecalis; assay: Antibacterial activity against vancomycin-sensitive Enterococcus faecalis APV 00406 after 16 to 24 hrs by broth microdilution method; format: functional
[13] = Selectivity ratio, ratio of IC50 for human HepG2 cells to MIC for Escherichia coli ATCC 25922; format: toxicity; conditions: read-out: Selectivity Index
[14] = tested on: Enterococcus faecium; assay: Antibacterial activity against vancomycin and teicoplanin-resistant Enterococcus faecium APV 00422 after 16 to 24 hrs by broth microdilution method; format: functional
[15] = tested on: Pseudomonas aeruginosa; assay: Antibacterial activity against Pseudomonas aeruginosa ATCC 27853 after 16 to 24 hrs by CLSI method; format: functional
[16] = target: T1, DNA topoisomerase 4 subunit A (Escherichia coli K-12, UniProt P0AFI2); assay: Inhibition of Escherichia coli ATCC 25922 DNA topoisomerase 4 subunit ParC assessed as reduction in decatenation of kinetoplast DNA incubated for 30 mins by ethidium bromide staining based gel electrophoresis method
T1 sequence (P0AFI2 whole entry): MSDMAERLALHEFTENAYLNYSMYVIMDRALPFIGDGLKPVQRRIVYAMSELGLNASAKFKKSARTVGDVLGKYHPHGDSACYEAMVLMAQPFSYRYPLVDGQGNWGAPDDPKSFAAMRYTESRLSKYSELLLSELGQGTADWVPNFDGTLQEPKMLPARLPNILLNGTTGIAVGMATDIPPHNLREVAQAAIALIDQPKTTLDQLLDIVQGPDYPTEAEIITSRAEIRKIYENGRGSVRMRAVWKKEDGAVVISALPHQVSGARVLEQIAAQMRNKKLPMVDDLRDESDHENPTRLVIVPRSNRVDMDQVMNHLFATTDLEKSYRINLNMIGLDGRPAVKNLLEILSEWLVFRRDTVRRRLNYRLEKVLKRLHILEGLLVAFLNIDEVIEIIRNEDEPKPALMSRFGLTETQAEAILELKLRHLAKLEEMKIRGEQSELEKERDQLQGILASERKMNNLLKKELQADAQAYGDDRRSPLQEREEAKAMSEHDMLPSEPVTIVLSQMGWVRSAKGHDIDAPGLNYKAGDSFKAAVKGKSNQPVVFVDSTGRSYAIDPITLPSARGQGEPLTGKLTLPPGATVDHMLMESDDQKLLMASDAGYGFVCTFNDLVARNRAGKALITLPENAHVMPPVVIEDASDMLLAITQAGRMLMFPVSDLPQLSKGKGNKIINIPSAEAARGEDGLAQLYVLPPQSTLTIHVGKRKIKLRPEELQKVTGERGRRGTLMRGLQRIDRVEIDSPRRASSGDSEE

[17] = tested on: Enterococcus faecalis; assay: Antibacterial activity against vancomycin-sensitive Enterococcus faecalis APV 00404 after 16 to 24 hrs by broth microdilution method; format: functional
[18] = tested on: Escherichia coli; assay: Antibacterial activity against Escherichia coli ATCC 25922 after 16 to 24 hrs by broth microdilution method; format: functional
[19] = target: hERG (KCNH2) (Homo sapiens, UniProt Q12809); assay: Inhibition of human ERG expressed in CHO cells at 10 uM after 5 mins by automated whole-cell patch clamp relative to control; format: cell-based; conditions: CHO cells that express human ERG
[20] = Selectivity ratio, ratio of IC50 for human HEK293 cells to MIC for Staphylococcus aureus ATCC 29213; format: toxicity; conditions: read-out: Selectivity Index
[21] = tested on: Staphylococcus aureus; assay: Selectivity ratio of MIC for Staphylococcus aureus ATCC 29213 in presence of 50% human serum to MIC for Staphylococcus aureus ATCC 29213; format: functional
[22] = tested on: Enterococcus faecalis; assay: Antibacterial activity against vancomycin and teicoplanin-resistant Enterococcus faecalis APV 00408 after 16 to 24 hrs by broth microdilution method; format: functional
[23] = tested on: Enterococcus faecium; assay: Antibacterial activity against vancomycin and teicoplanin-resistant Enterococcus faecium APV 00424 after 16 to 24 hrs by broth microdilution method; format: functional
[24] = tested on: HepG2; assay: Cytotoxicity against human HepG2 cells after 48 hrs by Alamar blue staining-based fluorometric analysis; format: cell-based; conditions: HepG2, 48 h
[25] = Selectivity ratio, ratio of IC50 for human HepG2 cells to MIC for Staphylococcus aureus ATCC 29213; format: toxicity; conditions: read-out: Selectivity Index
[26] = tested on: Enterococcus faecium; assay: Antibacterial activity against Enterococcus faecium APV 00626 after 16 to 24 hrs by broth microdilution method; format: functional
[27] = tested on: Neisseria gonorrhoeae; assay: Antibacterial activity against Neisseria gonorrhoeae ATCC 19424 after 16 to 24 hrs by broth microdilution method; format: functional
[28] = target: DNA gyrase subunit A (Escherichia coli K-12, UniProt P0AES4); assay: Inhibition of Escherichia coli ATCC 25922 DNA gyrase A assessed as reduction in enzyme-mediated supercoiling of relaxed pBR322 DNA by ethidium bromide staining based gel electrophoresis method
[29] = tested on: Enterococcus faecium; assay: Antibacterial activity against Enterococcus faecium APV 00627 after 16 to 24 hrs by broth microdilution method; format: functional
[30] = tested on: Haemophilus influenzae; assay: Antibacterial activity against quinolone-sensitive Haemophilus influenzae H128 after 16 to 24 hrs by broth microdilution method; format: functional
[31] = tested on: Enterococcus faecium; assay: Antibacterial activity against vancomycin resistant and teicoplanin sensitive Enterococcus faecium APV 00553 after 16 to 24 hrs by broth microdilution method; format: functional
[32] = tested on: Escherichia coli; assay: Selectivity ratio of MIC for Escherichia coli ATCC 25922 in presence of 50% human serum to MIC for Escherichia coli ATCC 25922; format: functional
[33] = tested on: Enterococcus faecium; assay: Antibacterial activity against vancomycin resistant and teicoplanin sensitive Enterococcus faecium APV 00420 after 16 to 24 hrs by broth microdilution method; format: functional
[34] = tested on: Staphylococcus aureus; assay: Antibacterial activity against Staphylococcus aureus ATCC 29213 in presence of 50% human serum after 16 to 24 hrs by broth microdilution method; format: functional
[35] = tested on: Klebsiella pneumoniae; assay: Antibacterial activity against quinolone-sensitive Klebsiella pneumoniae ATCC 700603 after 16 to 24 hrs by broth microdilution method; format: functional
[36] = tested on: HEK293; assay: Cytotoxicity against human HEK293 cells after 48 hrs by Alamar blue staining-based fluorometric analysis; format: cell-based; conditions: HEK293, 48 h
[37] = target: DNA topoisomerase 4 subunit A (Staphylococcus aureus, UniProt P0C1U9); assay: Inhibition of Staphylococcus aureus ATCC 29213 DNA topoisomerase 4 subunit ParC assessed as reduction in decatenation of kinetoplast DNA incubated for 30 mins by ethidium bromide staining based gel electrophoresis method
[38] = tested on: HaCaT; assay: Cytotoxicity against human HaCaT cells after 24 hrs by resazurin dye based CellTiter-Blue assay; format: cell-based

Sequence of DNA gyrase subunit A (Escherichia coli K-12, UniProt P0AES4) (P0AES4 whole entry): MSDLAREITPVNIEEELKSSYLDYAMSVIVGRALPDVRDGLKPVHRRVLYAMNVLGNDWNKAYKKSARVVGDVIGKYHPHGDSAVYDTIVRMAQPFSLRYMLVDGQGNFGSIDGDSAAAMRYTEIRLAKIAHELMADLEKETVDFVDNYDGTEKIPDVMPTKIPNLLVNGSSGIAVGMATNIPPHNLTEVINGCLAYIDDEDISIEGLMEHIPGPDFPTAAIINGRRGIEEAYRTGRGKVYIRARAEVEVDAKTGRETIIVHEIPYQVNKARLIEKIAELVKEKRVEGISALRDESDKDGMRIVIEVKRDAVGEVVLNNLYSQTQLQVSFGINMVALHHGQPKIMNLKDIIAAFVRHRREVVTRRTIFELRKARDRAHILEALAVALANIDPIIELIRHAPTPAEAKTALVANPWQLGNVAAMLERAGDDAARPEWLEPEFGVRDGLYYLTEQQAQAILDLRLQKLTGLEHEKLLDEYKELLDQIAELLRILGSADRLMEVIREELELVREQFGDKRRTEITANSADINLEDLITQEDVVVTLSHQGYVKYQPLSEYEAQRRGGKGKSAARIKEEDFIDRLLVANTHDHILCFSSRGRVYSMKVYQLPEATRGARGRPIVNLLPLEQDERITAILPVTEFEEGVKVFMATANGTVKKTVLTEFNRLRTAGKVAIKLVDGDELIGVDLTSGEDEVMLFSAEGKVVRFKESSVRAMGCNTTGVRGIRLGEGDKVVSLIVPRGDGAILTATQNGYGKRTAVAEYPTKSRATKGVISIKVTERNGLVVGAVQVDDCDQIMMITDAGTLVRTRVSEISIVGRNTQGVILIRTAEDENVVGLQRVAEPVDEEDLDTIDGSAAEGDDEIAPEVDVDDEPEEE
Sequence of DNA topoisomerase 4 subunit A (Staphylococcus aureus, UniProt P0C1U9) (P0C1U9 whole entry): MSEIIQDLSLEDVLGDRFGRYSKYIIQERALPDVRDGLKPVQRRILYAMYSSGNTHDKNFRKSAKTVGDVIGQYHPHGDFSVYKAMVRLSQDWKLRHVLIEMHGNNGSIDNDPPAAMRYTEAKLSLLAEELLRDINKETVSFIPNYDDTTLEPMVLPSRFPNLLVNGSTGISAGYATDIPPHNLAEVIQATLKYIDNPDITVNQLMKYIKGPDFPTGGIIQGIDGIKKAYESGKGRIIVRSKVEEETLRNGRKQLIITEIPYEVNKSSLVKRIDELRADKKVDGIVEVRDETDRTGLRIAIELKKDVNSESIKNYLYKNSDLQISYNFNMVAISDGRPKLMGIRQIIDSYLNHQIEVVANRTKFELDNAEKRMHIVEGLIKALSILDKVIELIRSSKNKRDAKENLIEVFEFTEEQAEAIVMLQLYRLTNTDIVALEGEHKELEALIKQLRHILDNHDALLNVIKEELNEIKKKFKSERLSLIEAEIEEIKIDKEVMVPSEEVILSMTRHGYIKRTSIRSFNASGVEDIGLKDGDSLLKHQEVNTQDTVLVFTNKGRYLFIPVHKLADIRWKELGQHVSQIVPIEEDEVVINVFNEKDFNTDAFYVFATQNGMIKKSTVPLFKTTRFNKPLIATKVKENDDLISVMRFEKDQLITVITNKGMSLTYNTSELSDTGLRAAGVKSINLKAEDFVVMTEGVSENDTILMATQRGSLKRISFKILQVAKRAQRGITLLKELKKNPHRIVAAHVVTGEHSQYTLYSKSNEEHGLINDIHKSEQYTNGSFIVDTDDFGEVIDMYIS
Sequence of DNA gyrase subunit A (Staphylococcus aureus, UniProt P20831) (P20831 whole entry): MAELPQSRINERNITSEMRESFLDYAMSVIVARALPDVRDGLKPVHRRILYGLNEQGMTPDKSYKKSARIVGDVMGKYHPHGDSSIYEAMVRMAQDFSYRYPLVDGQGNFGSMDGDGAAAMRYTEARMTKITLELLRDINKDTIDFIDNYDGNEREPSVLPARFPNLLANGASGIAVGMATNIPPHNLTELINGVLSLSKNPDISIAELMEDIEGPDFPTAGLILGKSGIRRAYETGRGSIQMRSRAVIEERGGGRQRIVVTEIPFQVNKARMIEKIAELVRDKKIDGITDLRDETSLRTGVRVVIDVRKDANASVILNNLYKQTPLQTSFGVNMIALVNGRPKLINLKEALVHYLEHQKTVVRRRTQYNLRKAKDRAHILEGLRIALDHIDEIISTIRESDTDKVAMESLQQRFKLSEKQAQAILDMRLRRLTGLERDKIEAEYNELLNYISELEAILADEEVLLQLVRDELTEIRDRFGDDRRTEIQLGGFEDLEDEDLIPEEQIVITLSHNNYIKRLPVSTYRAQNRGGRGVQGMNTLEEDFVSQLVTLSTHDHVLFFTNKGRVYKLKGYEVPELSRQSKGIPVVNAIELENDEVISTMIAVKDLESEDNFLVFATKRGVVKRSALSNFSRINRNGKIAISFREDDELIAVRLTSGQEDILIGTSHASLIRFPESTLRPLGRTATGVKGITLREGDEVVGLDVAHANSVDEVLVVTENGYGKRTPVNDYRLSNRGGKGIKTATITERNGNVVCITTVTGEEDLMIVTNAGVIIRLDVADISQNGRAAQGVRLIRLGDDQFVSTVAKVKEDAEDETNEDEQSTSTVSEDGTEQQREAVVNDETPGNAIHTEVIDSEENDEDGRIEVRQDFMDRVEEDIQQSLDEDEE
Sequence of hERG (KCNH2) (Q12809 whole entry): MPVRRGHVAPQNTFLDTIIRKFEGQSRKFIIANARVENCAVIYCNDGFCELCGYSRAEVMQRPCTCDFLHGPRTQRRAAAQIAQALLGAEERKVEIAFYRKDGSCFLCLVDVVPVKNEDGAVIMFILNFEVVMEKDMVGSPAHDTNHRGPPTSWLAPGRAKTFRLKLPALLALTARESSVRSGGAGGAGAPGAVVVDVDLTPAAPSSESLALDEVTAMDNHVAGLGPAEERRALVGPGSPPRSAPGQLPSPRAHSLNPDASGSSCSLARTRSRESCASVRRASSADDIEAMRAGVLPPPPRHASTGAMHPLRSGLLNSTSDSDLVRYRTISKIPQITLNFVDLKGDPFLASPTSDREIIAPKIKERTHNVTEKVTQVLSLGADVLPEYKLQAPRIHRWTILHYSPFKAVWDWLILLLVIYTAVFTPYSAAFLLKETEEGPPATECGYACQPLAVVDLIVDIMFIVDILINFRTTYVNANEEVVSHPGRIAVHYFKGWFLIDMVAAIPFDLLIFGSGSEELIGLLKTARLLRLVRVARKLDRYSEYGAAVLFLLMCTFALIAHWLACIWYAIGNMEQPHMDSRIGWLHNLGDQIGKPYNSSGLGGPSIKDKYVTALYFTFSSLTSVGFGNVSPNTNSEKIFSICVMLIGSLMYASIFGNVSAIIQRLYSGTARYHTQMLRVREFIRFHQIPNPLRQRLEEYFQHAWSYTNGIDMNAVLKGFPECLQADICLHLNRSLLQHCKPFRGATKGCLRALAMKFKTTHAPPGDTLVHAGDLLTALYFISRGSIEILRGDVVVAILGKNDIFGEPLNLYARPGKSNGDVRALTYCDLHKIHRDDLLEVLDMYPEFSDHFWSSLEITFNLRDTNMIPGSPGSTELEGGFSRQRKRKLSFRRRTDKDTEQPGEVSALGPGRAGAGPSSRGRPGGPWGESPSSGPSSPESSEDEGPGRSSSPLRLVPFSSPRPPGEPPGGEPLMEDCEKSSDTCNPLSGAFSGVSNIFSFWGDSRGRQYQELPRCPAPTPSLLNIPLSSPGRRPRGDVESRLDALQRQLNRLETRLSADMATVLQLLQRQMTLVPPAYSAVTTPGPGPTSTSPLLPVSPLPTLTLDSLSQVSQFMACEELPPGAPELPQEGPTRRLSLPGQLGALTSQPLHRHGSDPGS

With `O=c1nc(NCC(O)CN2CCN(c3nccc4ccc(F)cc34)CC2)c2cc(F)ccc2o1` (racemic) the MIC [1] was 0.12 µg/mL (≈ 0.257 µM), the MIC [2] was greater than 8 µg/mL and the MIC [3] was greater than 8 µg/mL. It also gave an MIC [4] of 0.25 µg/mL (≈ 0.535 µM), an MIC [5] of 0.5 µg/mL (≈ 1.07 µM) and an MIC [6] of 0.5 µg/mL (≈ 1.07 µM). The Ratio [7] was “>=32 - 267”, the MIC [8] was 0.25 µg/mL (≈ 0.535 µM) and the IC50 [9] was 20 nM. It also gave an MIC [10] of 0.21 µM (≈ 0.0982 µg/mL), a selectivity ratio [11] of 37 and an MIC [12] of 0.25 µg/mL (≈ 0.535 µM). The selectivity ratio [13] was 26, the MIC [14] was 0.25 µg/mL (≈ 0.535 µM) and the MIC [15] was 4 µg/mL (≈ 8.56 µM). The IC50 [16] was 100 nM, the MIC [17] was 0.25 µg/mL (≈ 0.535 µM) and the MIC [18] was 2.14 µM (≈ 1 µg/mL). The inhibition at 5 min, 10 µM [19] was 67%, the selectivity ratio [20] was 381 and the Ratio [21] was “>=32 - 267”. For the same compound, the MIC [22] was 0.25 µg/mL (≈ 0.535 µM), the MIC [23] was 0.12 µg/mL (≈ 0.257 µM) and the IC50 [24] was 55000 nM. The selectivity ratio [25] was 262, the MIC [26] was 16 µg/mL (≈ 34.2 µM) and the MIC [27] was no more than 0.06 µg/mL. The IC50 [28] was 400 nM, the MIC [29] was 1 µg/mL (≈ 2.14 µM) and the MIC [30] was 0.12 µg/mL (≈ 0.257 µM). For the same compound, the MIC [31] was 0.5 µg/mL (≈ 1.07 µM), the Ratio [32] was “>=32 - 267” and the MIC [33] was 1 µg/mL (≈ 2.14 µM). The MIC [34] was greater than 8 µg/mL, the MIC [35] was 4 µg/mL (≈ 8.56 µM) and the IC50 [36] was 80000 nM. The IC50 [37] was 50 nM.

`O=c1nc(NCC(O)CN2CCN(c3nc(F)cc4ccc(F)cc34)CC2)c2cc(F)ccc2o1` (racemic) gave an MIC [1] of 0.06 µg/mL (≈ 0.124 µM), an MIC [2] greater than 8 µg/mL and an MIC [3] of 4 µg/mL. It also gave an MIC [4] of 0.03 µg/mL (≈ 0.0618 µM), an MIC [5] of 0.12 µg/mL (≈ 0.247 µM) and an MIC [6] of 0.12 µg/mL (≈ 0.247 µM). For the same compound, the Ratio [7] was “>=32 - 267”, the MIC [8] was 0.12 µg/mL (≈ 0.247 µM) and the IC50 [9] was 20 nM. It also gave an MIC [10] of less than 0.12 µM, a selectivity ratio [11] of 51 and an MIC [12] of 0.06 µg/mL (≈ 0.124 µM). It also gave a selectivity ratio [13] of 30, an MIC [14] of 0.12 µg/mL (≈ 0.247 µM) and an IC50 [38] greater than 100000 nM. For the same compound, the MIC [15] was 2 µg/mL (≈ 4.12 µM), the IC50 [16] was 100 nM and the MIC [17] was 0.12 µg/mL (≈ 0.247 µM). For the same compound, the MIC [18] was 1.02 µM (≈ 0.495 µg/mL), the inhibition at 5 min, 10 µM [19] was 24% and the selectivity ratio [20] was greater than 433. The Ratio [21] was “>=32 - 267”, the MIC [22] was 0.06 µg/mL (≈ 0.124 µM) and the MIC [23] was 0.06 µg/mL (≈ 0.124 µM). It also gave an IC50 [24] of 31000 nM, a selectivity ratio [25] greater than 258 and an MIC [26] of 32 µg/mL (≈ 65.9 µM). The MIC [27] was no more than 0.06 µg/mL, the IC50 [28] was 100 nM and the MIC [29] was 0.5 µg/mL (≈ 1.03 µM). The MIC [30] was 0.06 µg/mL (≈ 0.124 µM), the MIC [31] was 0.25 µg/mL (≈ 0.515 µM) and the Ratio [32] was “>=32 - 267”. It also gave an MIC [33] of 0.25 µg/mL (≈ 0.515 µM), an MIC [34] of 4 µg/mL and an MIC [35] of 1 µg/mL (≈ 2.06 µM). It also gave an IC50 [36] of 52000 nM and an IC50 [37] of 40 nM.
